From patent US11433036B2, “Oxprenolol compositions for treating cancer” (priority 2013, dated 2022)
Entries after “also recorded” stand apart in the source; their conditions may differ. Where two headings read alike, the source gives them in different places.

How the values were obtained:
[1] = tested on: Yoshida Hepatoma Model; assay: Survival in Yoshida hepatoma model; assay type: in vivo, male Wistar rats; conditions: for survival: animal inoculated with hepatocellular carcinoma cells, summary statement
Description: (§1) Ascites hepatoma Yoshida AH-130 cells (10^3 cells) were inoculated into about 200 gram male Wistar rats by i.p. injection. Alternatively animals received saline injection only (sham). The day after inoculation animals were randomized into various groups and then received twice daily treatment with either placebo or various test compositions by oral gavage over a period of up to 17 days. The primary endpoints of the study included assessment of body weight, body composition (with and without tumor), and survival. Body composition was monitored by NMR. Echocardiography was used in instances to monitor condition of the heart. Organ weight was assessed at the end of the study (or after death) as a secondary endpoint. In addition, locomotor activity and food intake were also assessed. FIG. 1 provides a diagram showing the design study. R- and S-oxprenolol were manufactured to order by Peakdale Molecular, Peakdale Science Park, Sheffield Road. Chapel-en-le-Frith, High Peak SK23 0PG, UK
To study the effect of S-oxprenolol and R-oxprenolol on survival, survival was monitored over time.

[2] = tested on: Yoshida Hepatoma Model; conditions: for change of body weight: 5, 12.5, 25 or 50 mg/kg/day, FIG. 7; for change in body weight: S-oxprenolol 20 mg/kg/day vs racemic mixture 40 mg/kg/day, FIG. 8
Description: as §1
To study the effect of the test compounds on body weight, body weight was monitored over time.
To study the effect of the test compounds as mixtures of enantiomers on body weight, body weight was monitored over time.

[3] = tested on: Yoshida Hepatoma Model; conditions: for change in lean body mass/days alive: FIG. 11B
Description: as §1
To study the effect of the test compounds on lean body mass, lean mass was determined at the end of the study.
To study the effect of the test compounds as mixtures of enantiomers on lean body mass, lean mass was determined at the end of the study.

[4] = tested on: Yoshida Hepatoma Model; conditions: 5, 12.5, 25 or 50 mg/kg/day; end of study; FIGS. 13A-13D
Description: as §1
To study the effect of the test compounds on skeletal muscle atrophy and heart weight, the skeletal muscle mass and heart weight were determined at the end of the study.

[5] = tested on: Yoshida Hepatoma Model; conditions: for change in fat mass: FIG. 14
Description: as §1
To study the effect of the test compounds on fat mass, the fat mass were determined at the end of the study.
To study the effect of the test compounds as mixtures of enantiomers on fat mass, the fat mass were determined at the end of the study.

[6] = tested on: Yoshida Hepatoma Model; conditions: Day 11; for food intake: FIG. 17; for locomotor activity: FIG. 18
Description: as §1
To study the effect of the test compounds on quality of life, parameters of quality of life such as food intake and locomotor activity were assessed at Day 11.

[7] = tested on: Yoshida Hepatoma Model; conditions: 5, 12.5, 25 or 50 mg/kg/day vs placebo; end of study; FIGS. 19A and 19B
Description: as §1
To study the effect of the test compounds on tumor growth, tumor growth was assessed at the end of the study.

[8] = tested on: B16V (melanoma); conditions: B16V cells; BrdU incorporation and XTT assay; FIG. 20
Experimental: (§2) The effect of the test compounds on tumor growth was also evaluated in an in vitro experiment with various tumor cells, namely, Kelly (neuroblastoma), Hela-93 (cervix carcinoma), and B16V (melanoma). Cell growth was assessed by BrdU incorporation (left of FIG. 20) and XTT assay (right of FIG. 20). Doxorubicin was used as a positive control.

[9] = tested on: Hela-93 (cervix carcinoma); conditions: Hela-93 cells; BrdU incorporation and XTT assay; FIG. 20
Experimental: as §2

[10] = tested on: Kelly (neuroblastoma); conditions: Kelly cells; BrdU incorporation and XTT assay; FIG. 20
Experimental: as §2

[11] = S-oxprenolol vs placebo or S-pindolol 3 mg/kg/day, FIG. 4
[12] = 25 mg/kg/day or 50 mg/kg/day, oral gavage twice daily, up to 17 days, FIG. 2
[13] = S-oxprenolol 20 mg/kg/day vs racemic mixture 40 mg/kg/day (same amount of S-oxprenolol), FIG. 3
[14] = 5, 12.5, 25 or 50 mg/kg/day, FIG. 10
[15] = S-oxprenolol 20 mg/kg/day vs racemic mixture 40 mg/kg/day, FIG. 11A
[16] = S-oxprenolol 20 mg/kg/day vs racemic mixture 40 mg/kg/day
[17] = 5, 12.5, 25 or 50 mg/kg/day, FIG. 15A
[18] = 5, 12.5, 25 or 50 mg/kg/day, FIG. 15B
[19] = S-oxprenolol 20 mg/kg/day vs racemic mixture 40 mg/kg/day, FIG. 16A
[20] = S-oxprenolol 20 mg/kg/day vs racemic mixture 40 mg/kg/day, FIG. 16B
[21] = 5 mg/kg/day or 25 mg/kg/day vs placebo
[22] = 25 mg/kg/day S-oxprenolol vs same amount of R-oxprenolol

| SMILES | percent survival [1, 11] | percent survival [1, 12] | percent survival [1, 13] | survival [1] | change of body weight [2] | change in body weight [2] | change in lean body mass [3, 14] | change in lean body mass [3, 15] | change in lean body mass/days alive [3, 16] | mass of skeletal muscle (gastrocnemius, tibialis anterior, soleus, EDL) [4] | change in fat mass ([5]; 5, 12.5, 25 or 50 mg/kg/day) | weight of white adipose tissue (WAT) [5, 17] | weight of brown adipose tissue (BAT) [5, 18] | weight of white adipose tissue (WAT) [5, 19] | weight of brown adipose tissue (BAT) [5, 20] | food intake [6, 21] | locomotor activity [6, 21] | food intake [6, 22] | locomotor activity [6, 22] | tumor growth (tumor volume, total number of cells in a tumor) [7] | further results |
| --- | --- | --- | --- | --- | --- | --- | --- | --- | --- | --- | --- | --- | --- | --- | --- | --- | --- | --- | --- | --- | --- |
| CC(C)NC[C@H](O)COc1cccc2[nH]ccc12 [S-pindolol, reference compound] | S-oxprenolol was significantly superior to either placebo or S-pindolol at its preferred dose |  |  |  |  |  |  |  |  |  |  |  |  |  |  |  |  |  |  |  |  |
| C=CCOc1ccccc1OC[C@@H](O)CNC(C)C [S-oxprenolol, (S)-(−)-oxprenolol] | significantly superior to either placebo or S-pindolol at its preferred dose | longer survival than those in the placeo group or those receiving R-oxprenolol | longer survival than those receiving the racemic mixture; also recorded: had an improved effect on survival than the racemic mixture | significantly improved survival in animals having cancer | less body weight loss than those in the placebo group and those administered with R-oxprenolol | less body weight loss than those receiving the racemic mixture | rats receiving S-oxprenolol at doses of 12.5 mg/kg/day or higher had less change in lean body mass than those receiving R-oxprenolol | less change in lean body weight than those receiving the racemic mixture | less change in lean body mass than those receiving the racemic mixture | reduces wasting of individual hind limb muscles independent of their composition of slow and fast twitch muscle fibers | rats receiving S-oxprenolol at 12.5 mg/kg/day or higher had less fat mass loss than those in the placebo group or those receiving R-oxprenolol | better effects in reducing fat wasting than R-oxprenolol | both enantiomers of oxprenolol protect BAT mass | significantly better effect in preserving the white adipose tissue than those receiving the racemic mixture | better effect in preserving the brown adipose tissue than those receiving the racemic mixture | higher food intake than those in the placebo group | higher locomotive activity than those in the placebo group | higher food intake than those receiving the same amount of R-oxprenolol | higher locomotive activity than those receiving the same amount of R-oxprenolol | did not have any significant effects on tumor growth compared to those in the placebo group | percent survival, comparison of dosages ([1]; S-oxprenolol 5, 12.5, 25, 50, 70 or 100 mg/kg/day, FIGS. 4 and 5): 50 mg/kg/day S-oxprenolol had the best effect on survival among all dosages tested; change in body weight, comparison of dosages ([2]; S-oxprenolol 12.5, 25, 50, 70 or 100 mg/kg/day, FIG. 9): rats receiving 50 mg/kg/day or 100 mg/kg/day of the S-oxprenolol had the least body weight loss; change in lean body mass, comparison of dosages ([3]; S-oxprenolol 12.5, 25, 50, 70 or 100 mg/kg/day, FIG. 12A): rats receiving 100 mg/kg/day of S-oxprenolol had the least change in lean body mass compared to rats receiving other doses; change in lean body mass/days alive, comparison of dosages ([3]; S-oxprenolol 12.5, 25, 50, 70 or 100 mg/kg/day, FIG. 12B): rats receiving 100 mg/kg/day of S-oxprenolol had the least change in lean body mass/days alive compared to rats receiving other doses; tumor cell proliferation [8]: neither S-oxprenolol nor R-oxprenolol showed any inhibitor effects on tumor cell proliferation; tumor cell proliferation [9]: neither S-oxprenolol nor R-oxprenolol showed any inhibitor effects on tumor cell proliferation; tumor cell proliferation [10]: neither S-oxprenolol nor R-oxprenolol showed any inhibitor effects on tumor cell proliferation |
| C=CCOc1ccccc1OC[C@H](O)CNC(C)C [R-oxprenolol, (R)-(+)-oxprenolol, reference compound] |  | did not show statistically significant improvement on survival over those in the placebo group |  | S-oxprenolol, but not R-oxprenolol, significantly improved survival | rats receiving S-oxprenolol had less body weight loss than those in the placebo group and those administered with R-oxprenolol |  | rats receiving S-oxprenolol at doses of 12.5 mg/kg/day or higher had less change in lean body mass than those receiving R-oxprenolol |  |  | does not have this protective effect | rats receiving S-oxprenolol at 12.5 mg/kg/day or higher had less fat mass loss than those in the placebo group or those receiving R-oxprenolol | S-oxprenolol had better effects in reducing fat wasting than R-oxprenolol | both enantiomers of oxprenolol protect BAT mass |  |  | higher food intake than those in the placebo group | higher locomotive activity than those in the placebo group | Rats receiving 25 mg/kg/day S-oxprenolol had higher food intake than those receiving the same amount of R-oxprenolol | Rats receiving 25 mg/kg/day S-oxprenolol had higher locomotive activity than those receiving the same amount of R-oxprenolol | did not have any significant effects on tumor growth compared to those in the placebo group | percent survival ([1]; R-oxprenolol 5, 12.5, 25 or 50 mg/kg/day, FIG. 6): no statistically significant survival benefit over placebo was observed; tumor cell proliferation [8]: neither S-oxprenolol nor R-oxprenolol showed any inhibitor effects on tumor cell proliferation; tumor cell proliferation [9]: neither S-oxprenolol nor R-oxprenolol showed any inhibitor effects on tumor cell proliferation; tumor cell proliferation [10]: neither S-oxprenolol nor R-oxprenolol showed any inhibitor effects on tumor cell proliferation |
| C=CCOc1ccccc1OCC(O)CNC(C)C (racemic) [racemic mixture of oxprenolol, 1-[2-(allyloxy)phenoxy]-3-(isopropylamino)propan-2-ol, reference compound] |  |  | rats receiving S-oxprenolol had longer survival than those receiving the racemic mixture |  |  | rats receiving S-oxprenolol had less body weight loss than those receiving the racemic mixture |  | rats receiving S-oxprenolol had less change in lean body weight than those receiving the racemic mixture | rats receiving S-oxprenolol had less change in lean body mass than those receiving the racemic mixture |  |  |  |  | rats receiving S-oxprenolol had significantly better effect in preserving the white adipose tissue than those receiving the racemic mixture | rats receiving S-oxprenolol had better effect in preserving the brown adipose tissue than those receiving the racemic mixture |  |  |  |  |  |  |
